Assay results from ChEMBL document CHEMBL1156214, “Identification of GNE-477, a potent and efficacious dual PI3K/mTOR inhibitor” (Bioorg Med Chem Lett, 2010).
≈ marks a conversion by molar mass, not a printed value. Calls of active or inactive are those of the source. The rule behind the calls is not given here.

Columns and labels:
[1] = Antiproliferative activity against human MCF7.1 cells after 3 days by celltiter-glo luminescence assay; format: functional, cell-based; conditions: MCF7.1, 72 h
[2] = target: Phosphatidylinositol 4,5-bisphosphate 3-kinase catalytic subunit alpha isoform (Homo sapiens, UniProt P42336)
Phosphatidylinositol 4,5-bisphosphate 3-kinase catalytic subunit alpha isoform, sequence (P42336 whole entry, canonical isoform): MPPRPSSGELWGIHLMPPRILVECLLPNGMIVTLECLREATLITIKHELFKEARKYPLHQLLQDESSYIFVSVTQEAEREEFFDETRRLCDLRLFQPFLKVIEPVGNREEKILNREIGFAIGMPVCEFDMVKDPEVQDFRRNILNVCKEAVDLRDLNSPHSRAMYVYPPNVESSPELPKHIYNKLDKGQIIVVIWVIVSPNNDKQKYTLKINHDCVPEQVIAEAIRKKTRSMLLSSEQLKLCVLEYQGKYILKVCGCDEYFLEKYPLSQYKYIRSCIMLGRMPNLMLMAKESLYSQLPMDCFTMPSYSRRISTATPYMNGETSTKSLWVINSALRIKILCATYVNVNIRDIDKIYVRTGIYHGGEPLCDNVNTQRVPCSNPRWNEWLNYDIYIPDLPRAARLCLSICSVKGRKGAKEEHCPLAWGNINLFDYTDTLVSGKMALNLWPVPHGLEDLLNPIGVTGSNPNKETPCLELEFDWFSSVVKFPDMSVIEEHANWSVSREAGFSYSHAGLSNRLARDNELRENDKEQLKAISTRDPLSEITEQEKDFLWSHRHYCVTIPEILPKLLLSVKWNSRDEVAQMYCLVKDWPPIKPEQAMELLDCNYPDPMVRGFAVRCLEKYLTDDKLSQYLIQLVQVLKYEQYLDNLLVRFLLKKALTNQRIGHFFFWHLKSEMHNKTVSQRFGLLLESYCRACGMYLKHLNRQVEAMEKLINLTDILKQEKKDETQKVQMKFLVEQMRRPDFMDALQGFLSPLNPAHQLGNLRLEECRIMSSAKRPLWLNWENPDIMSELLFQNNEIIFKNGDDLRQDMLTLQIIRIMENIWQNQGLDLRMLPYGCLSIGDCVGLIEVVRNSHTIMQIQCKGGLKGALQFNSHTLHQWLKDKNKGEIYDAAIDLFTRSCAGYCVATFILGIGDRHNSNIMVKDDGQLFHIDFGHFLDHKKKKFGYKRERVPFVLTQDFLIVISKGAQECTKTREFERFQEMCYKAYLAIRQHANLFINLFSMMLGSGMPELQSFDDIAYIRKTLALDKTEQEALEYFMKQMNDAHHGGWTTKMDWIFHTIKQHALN
Description: Inhibition of PI3Kalpha assessed as reduction in 3,4,5-inositoltriphosphate accumulation after 30 mins by fluorescence polarization assay

[3] = target: Serine/threonine-protein kinase mTOR (Homo sapiens, UniProt P42345); test: Inhibition of human recombinant mTOR assessed as reduction in GFP-4EBP1 phosphorylation after 30 mins by FRET assay
[4] = Thermodynamic solubility at pH 6.5; format: physicochemical; conditions: buffer
[5] = Oral bioavailability in rat at 5 mg/kg; format: ADME, organism-based; conditions: in vivo
[6] = Hepatic clearance in rat liver microsomes; format: ADME, Microsome
[7] = Plasma protein binding in rat at 1 mg/kg, iv or 5 mg/kg, po; format: ADME, organism-based; conditions: read-out: PPB (converted)
[8] = Clearance in rat at 1 mg/kg, iv or 5 mg/kg, po; format: ADME, organism-based; conditions: in vivo
Rattus norvegicus = test: Unbound clearance in rat at 1 mg/kg, iv or 5 mg/kg, po; format: ADME, organism-based; conditions: in vivo
Mus musculus = test: Toxicity in nu/nu mouse assessed as body weight loss at 1 to 20 mg/kg, po QD measured after 14 days; format: organism-based; parameters: dose 1-20 mg/kg, route oral; conditions: in vivo, 336 h
[9] = Oral bioavailability in nu/nu mouse at 5 mg/kg; format: ADME, organism-based; conditions: in vivo
[10] = Clearance in nu/nu mouse at 1 mg/kg, iv or 5 mg/kg, po; format: ADME, organism-based; conditions: in vivo
PC-3 [11] = test: Antitumor activity against human PC3 cells xenografted in nu/nu mouse assessed as tumor growth inhibition at 1 mg/kg, po QD measured after 14 days relative to control; format: functional; parameters: scale not given: the % may be the effect or the level left
PC-3 [12] = test: Antitumor activity against human PC3 cells xenografted in nu/nu mouse assessed as tumor growth inhibition at 10 mg/kg, po QD measured after 14 days relative to control; format: functional; parameters: scale not given: the % may be the effect or the level left
PC-3 [13] = test: Antitumor activity against human PC3 cells xenografted in nu/nu mouse assessed as tumor growth inhibition at 20 mg/kg, po QD measured after 14 days relative to control; format: functional; parameters: scale not given: the % may be the effect or the level left
[14] = Clearance in Beagle dog at 1 mg/kg, iv or 2 mg/kg, po; format: ADME, organism-based, Canis lupus familiaris; conditions: in vivo
[15] = Oral bioavailability in Beagle dog at 2 mg/kg; format: ADME, organism-based, Canis lupus familiaris; conditions: in vivo
PC-3 [16] = test: Antitumor activity against human PC3 cells xenografted in nu/nu mouse assessed as tumor growth inhibition at 5 mg/kg, po QD measured after 14 days relative to control; format: functional; parameters: scale not given: the % may be the effect or the level left
PC-3 [17] = test: Antiproliferative activity against human PC3 cells after 3 days by celltiter-glo luminescence assay; format: functional, cell-based; conditions: PC-3, 72 h
PC-3 [18] = test: Antitumor activity against human PC3 cells xenografted in nu/nu mouse assessed as tumor incidence at 1 mg/kg, po QD measured after 14 days; format: functional, organism-based; parameters: dose 1 mg/kg
PC-3 [19] = test: Antitumor activity against human PC3 cells xenografted in nu/nu mouse assessed as tumor incidence at 10 mg/kg, po QD measured after 14 days; format: functional, organism-based; parameters: dose 10 mg/kg

Compound | EC50 [1] [nM] | IC50 [2] [nM] | Ki [3] [nM] | solubility thermodynamic [4] [µg/mL] | CLhep predicted [6] [mL/min/kg] | fraction unbound [7] | clearance [8] [mL/min/kg] | Unbound clearance (Rattus norvegicus) [mL/min/kg] | also measured
CS(=O)(=O)N1CCN(Cc2cc3nc(-c4cccc5[nH]ncc45)nc(N4CCOCC4)c3s2)CC1 [PICTILISIB] | 720 | – | – | – | – | – | – | – | –
CC(C)(N)c1cc2nc(-c3cnc(N)nc3)nc(N3CCOCC3)c2s1 | 290 | 7 | 59 | 1100 (≈ 2960 µM) | – | – | – | – | –
CS(=O)(=O)c1cccc(-c2cc3nc(-c4cnc(N)nc4)nc(N4CCOCC4)c3s2)c1 | 40 | < 1 | 5 | 1 (≈ 2.13 µM) | 7 | 0.07 | 56 | 800 | bioavailability [5]: 3%
CC(=O)N(C)Cc1cc2nc(-c3cnc(N)nc3)nc(N3CCOCC3)c2s1 | 190 | 5 | 50 | 770 (≈ 1930 µM) | 2 | 0.53 | 50 | 94 | –
CN1CCN(C(=O)c2cccc(-c3cc4nc(-c5cnc(N)nc5)nc(N5CCOCC5)c4s3)c2)CC1 | 78 | 1 | 10 | – | 20 | – | 52 | – | –
Cc1c(CN2CCN(S(C)(=O)=O)CC2)sc2c(N3CCOCC3)nc(-c3cnc(N)nc3)nc12 | 143 | – | 21 | – | 15 | 0.25 | 13 | 52 | bioavailability [5]: 52%; Activity (Mus musculus): < 10%; bioavailability [9]: 98%; clearance [10]: 15 mL/min/kg; Activity (PC-3 [11]): 33%; Activity (PC-3 [12]): 60%; Activity (PC-3 [13]): 86%; clearance [14]: 5 mL/min/kg; bioavailability [15]: 90%; Activity (PC-3 [16]): 43%; EC50 (PC-3 [17]): 174 nM; Activity (PC-3 [18]): inactive; Activity (PC-3 [19]): inactive
Nc1ncc(-c2nc(N3CCOCC3)c3sccc3n2)cn1 | 430 | 5 | 42 | 170 (≈ 541 µM) | – | – | – | – | –
CN(Cc1cc2nc(-c3cnc(N)nc3)nc(N3CCOCC3)c2s1)S(C)(=O)=O | 170 | 1 | 10 | 15 (≈ 34.4 µM) | – | – | – | – | –
Cc1c(-c2cccc(C(=O)N3CCN(C)CC3)c2)sc2c(N3CCOCC3)nc(-c3cnc(N)nc3)nc12 | 65 | 2 | 4 | – | 38 | – | 15 | – | –
CC(=O)N(C)Cc1sc2c(N3CCOCC3)nc(-c3cnc(N)nc3)nc2c1C | 164 | 3 | 30 | – | 20 | 0.49 | 21 | 43 | –
Cc1c(-c2cccc(S(C)(=O)=O)c2)sc2c(N3CCOCC3)nc(-c3cnc(N)nc3)nc12 | 68 | < 1 | 4 | 3 (≈ 6.22 µM) | 12 | 0.03 | 13 | 433 | bioavailability [5]: 4%
CS(=O)(=O)N1CCN(Cc2cc3nc(-c4cnc(N)nc4)nc(N4CCOCC4)c3s2)CC1 | 130 | – | 29 | 62 (≈ 126 µM) | 16 | 0.48 | – | 50 | bioavailability [9]: 81%; clearance [10]: 49 mL/min/kg; bioavailability [15]: 35%
